TGI and GI50 data for 9 molecules are collected here from PubChem BioAssay (NCI).

Among the test systems are NCI-H460 lung; SNB-75 CNS; UACC-62 melanoma; SK-OV-3 ovarian; 786-0 renal; SF-539 CNS; ACHN renal; M14 melanoma; HL-60(TB) leukemia; CCRF-CEM leukemia.
Assay in all cases: NCI tumour cell line growth inhibition, 48 h

Structures are written as SMILES. Where “and” joins values, the source holds several entries; their conditions need not be identical. Equal values may be shown once.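 These data come from cells grown in 96-well plates and exposed to compound for 48 hours at five concentrations. The concentration for 50% growth inhibition is given as GI50. TGI: concentration producing complete growth inhibition.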 A value given as a limit tells only on which side of the number the result lay.

Consider `COc1ccc(O)cc1C(O)c1ccccc1` (configuration not stated), for which the TGI in the experiment on NCI-H460 lung, in the experiment on SNB-75 CNS, in the experiment on UACC-62 melanoma, in the experiment on SK-OV-3 ovarian, in the experiment with 786-0 renal and with SF-539 CNS was above 100 µM in each case. The TGI in the experiment with ACHN renal, with M14 melanoma, with HL-60(TB) leukemia and in the experiment on CCRF-CEM leukemia was above 100 µM throughout.
On to `CC(=O)c1ccccc1NC(=O)C(=O)C(C(=O)c1ccccc1-c1ccccc1)C1OC(=O)c2ccccc21` (configuration not stated), for which the TGI in the experiment with NCI-H460 lung is 35.3 µM; in the experiment with SNB-75 CNS it was 51.7 µM; in the experiment with UACC-62 melanoma it was 38.8 µM; in the experiment on SK-OV-3 ovarian, above 100 µM; in the experiment with 786-0 renal, 34.3 µM; in the experiment with SF-539 CNS, 37.2 µM. The TGI in the experiment with ACHN renal was 51.2 µM; in the experiment on M14 melanoma, 35.4 µM; in the experiment with HL-60(TB) leukemia, 81.2 µM; with CCRF-CEM leukemia it was above 100 µM.
As to `CCOC(=N)CC(=O)Nc1ccccc1`, the TGI was above 46.4 µM with NCI-H460 lung; above 46.4 µM in the experiment with SNB-75 CNS; above 100 µM with UACC-62 melanoma; above 100 µM with SK-OV-3 ovarian; above 46.4 µM with 786-0 renal; above 46.4 µM in the experiment with SF-539 CNS. For the same molecule, the TGI is above 46.4 µM with ACHN renal, above 46.4 µM in the experiment with M14 melanoma, above 100 µM in the experiment with HL-60(TB) leukemia and above 31.6 µM with CCRF-CEM leukemia.
As to `CCCCCCCCCCNCCSS(=O)(=O)O`, the GI50 is 1.72 µM in the experiment with NCI-H460 lung; 2.23 µM in the experiment on SNB-75 CNS; 1.42 µM with UACC-62 melanoma; 2.6 µM in the experiment with SK-OV-3 ovarian; 4.55 µM in the experiment with 786-0 renal; 2.31 µM with SF-539 CNS. Moreover, the GI50 is 10.1 µM with ACHN renal, 0.425 µM in the experiment with M14 melanoma, 1.76 µM in the experiment with HL-60(TB) leukemia and 1.86 µM in the experiment with CCRF-CEM leukemia. Besides, the TGI turned out to be 3.22 µM in the experiment on NCI-H460 lung; 4.22 µM with SNB-75 CNS; 3 µM in the experiment with UACC-62 melanoma; 7.58 µM with SK-OV-3 ovarian; 14.3 µM with 786-0 renal; 5.21 µM with SF-539 CNS. The TGI in the experiment with ACHN renal came to 25.4 µM; with M14 melanoma it was 2.64 µM; with HL-60(TB) leukemia it was 3.74 µM; in the experiment on CCRF-CEM leukemia, 3.98 µM.
Take `O=C1NC2(CCCCC2)C(=O)N1CCN(CCCl)CCCl`: the GI50 with NCI-H460 lung is 15.7 µM; in the experiment with SNB-75 CNS, above 25 µM; in the experiment on UACC-62 melanoma it was above 25 µM; in the experiment on SK-OV-3 ovarian, above 25 µM; in the experiment on SF-539 CNS, above 25 µM; in the experiment on HL-60(TB) leukemia it was 11.8 µM. In the experiment on CCRF-CEM leukemia, the GI50 is 12.2 µM. Further, the TGI was 25 µM and 249 µM with NCI-H460 lung; above 250 µM in the experiment on SNB-75 CNS; > 25 µM and 242 µM with UACC-62 melanoma; > 25 µM and 250 µM in the experiment on SK-OV-3 ovarian; above 25 µM in the experiment with 786-0 renal; above 250 µM in the experiment with SF-539 CNS. Further, the TGI is 25 µM in the experiment on ACHN renal; above 25 µM in the experiment with M14 melanoma; 25 µM and 183 µM in the experiment with HL-60(TB) leukemia; 25 µM and 212 µM in the experiment on CCRF-CEM leukemia.
For the molecule `CNC(=O)c1c(F)cccc1Nc1nc(Nc2cc3c(cc2OC)CCN3C(=O)CN(C)C)nc2[nH]ccc12`, the GI50 was 6.2 µM in the experiment on NCI-H460 lung; 11.7 µM in the experiment on SNB-75 CNS; 4.66 µM in the experiment with UACC-62 melanoma; 11.5 µM with SK-OV-3 ovarian; 11.3 µM in the experiment on 786-0 renal; 4.94 µM in the experiment with SF-539 CNS. In addition, the GI50 is 8.8 µM with ACHN renal, 1.64 µM with M14 melanoma, 0.364 µM in the experiment on HL-60(TB) leukemia and 2.1 µM in the experiment on CCRF-CEM leukemia. Moreover, the TGI came out at 30.1 µM with NCI-H460 lung; 24.7 µM in the experiment with SNB-75 CNS; 9.79 µM with UACC-62 melanoma; 27.5 µM with SK-OV-3 ovarian; 33.2 µM in the experiment on 786-0 renal; 10.3 µM in the experiment with SF-539 CNS. For the same molecule, the TGI in the experiment with ACHN renal amounted to 23.1 µM; in the experiment with M14 melanoma, 3.37 µM; in the experiment with HL-60(TB) leukemia, 18.2 µM; in the experiment on CCRF-CEM leukemia, 5.73 µM.
`Clc1cccc(CNc2c3ccccc3nc3ccccc23)c1`: the GI50 with NCI-H460 lung was 1.95 µM; in the experiment with SNB-75 CNS it was 1.76 µM; in the experiment on UACC-62 melanoma, 1.87 µM; with SK-OV-3 ovarian, 3.12 µM; in the experiment with 786-0 renal, 1.66 µM; in the experiment on SF-539 CNS it was 1.78 µM. The GI50 in the experiment with ACHN renal was 1.59 µM; with M14 melanoma it was 1.53 µM; in the experiment on HL-60(TB) leukemia, 1.9 µM; in the experiment with CCRF-CEM leukemia, 2.31 µM. The TGI in the experiment with NCI-H460 lung came out at 4.2 µM; with SNB-75 CNS, 6.44 µM; in the experiment with UACC-62 melanoma, 3.98 µM; with SK-OV-3 ovarian it was 13.2 µM; in the experiment on 786-0 renal, 3.2 µM; in the experiment with SF-539 CNS it was 3.32 µM. Besides, the TGI was 3.66 µM in the experiment on ACHN renal, 3.02 µM in the experiment on M14 melanoma, 4.35 µM in the experiment on HL-60(TB) leukemia and 8.77 µM in the experiment with CCRF-CEM leukemia.
As for `COc1ccc2c(O)c(/C=C3\N=Nc4ncccc43)oc2c1C[C@@H]1CCNC[C@H]1F`, the GI50 with NCI-H460 lung was 0.617 µM; in the experiment on SNB-75 CNS, 0.378 µM; with UACC-62 melanoma, 1.32 µM; with SK-OV-3 ovarian, 2.33 µM; in the experiment on 786-0 renal it was 0.362 µM; in the experiment with SF-539 CNS, 0.428 µM. Moreover, the GI50 in the experiment on ACHN renal was 0.51 µM; with M14 melanoma it was 0.557 µM; in the experiment on HL-60(TB) leukemia it was 0.314 µM; in the experiment with CCRF-CEM leukemia, 0.141 µM. For the same molecule, the TGI stood at 2.05 µM in the experiment on NCI-H460 lung; 1.94 µM in the experiment on SNB-75 CNS; 3.79 µM in the experiment on UACC-62 melanoma; 7.71 µM with SK-OV-3 ovarian; 1.59 µM in the experiment with 786-0 renal; 1.99 µM with SF-539 CNS. The TGI was found to be 2.83 µM with ACHN renal, 2.2 µM with M14 melanoma, 1.14 µM in the experiment with HL-60(TB) leukemia and 0.993 µM in the experiment with CCRF-CEM leukemia.
For `Clc1ccc2c(c1)N(C1CCCN(Cc3ccccc3)C1)c1ccccc1S2` (configuration not stated), the GI50 was 3.17 µM in the experiment on NCI-H460 lung; 4.11 µM with SNB-75 CNS; 6.94 µM in the experiment on UACC-62 melanoma; 3.36 µM in the experiment with SK-OV-3 ovarian; 4.44 µM in the experiment on 786-0 renal; 4.61 µM in the experiment with SF-539 CNS. The GI50 in the experiment with ACHN renal was 7.22 µM; in the experiment on M14 melanoma it was 2 µM; with HL-60(TB) leukemia, 4.52 µM; in the experiment on CCRF-CEM leukemia it was 4.89 µM. The TGI in the experiment with NCI-H460 lung was 10.4 µM; in the experiment with SNB-75 CNS it was above 100 µM; with UACC-62 melanoma, above 100 µM; in the experiment with SK-OV-3 ovarian, above 100 µM; with 786-0 renal, above 100 µM; with SF-539 CNS, 56.2 µM. Besides, the TGI with ACHN renal is above 100 µM; in the experiment with M14 melanoma, 4.41 µM; with HL-60(TB) leukemia, 72.5 µM; in the experiment with CCRF-CEM leukemia, above 100 µM.
